# Results as given in patent publication US8222270B2 (Medicis Pharmaceutical Corporation, priority 2008, dated 2012).
# Key:
# [1] = 52-week dermal photoco-carcinogenicity study; type: in vivo, hairless mice; conditions: 3×/week, 40 weeks, concurrent UV radiation
# Text: In a 52-week dermal photoco-carcinogenicity study, the median time to onset of skin tumor formation was decreased in hairless mice following chronic topical dosing (3×/week; 40 weeks of treatment followed by 12 weeks of observation) with concurrent exposure to UV radiation (5 days per week) with vehicle alone.
# Vehicle cream enhanced UVR-induced skin tumour development.
# [2] = Repeat dose dermal toxicity studies; type: in vivo, rats
# Experimental: A dose-related decrease in body weight of male rats was also observed. No systemic toxicity was found at doses up to 5 mg/kg three days per week for 4 weeks or at doses up to 2.5 mg/kg three days per week for 16 weeks.
structure (smiles),measurement,setting,value
"CC(C)Cn1cnc2c(N)nc3ccccc3c21 [imiquimod, 1-(2-methylpropyl)-1H-imidazo[4,5-c]quinolin-4-amine]",Effect on tumor development beyond the vehicle effect,[1],No additional effect on tumor development beyond the vehicle effect
same,Dose up to which no systemic toxicity was found,[2]; three days per week for 4 weeks,5 mg/kg
same,Dose up to which no systemic toxicity was found,[2]; three days per week for 16 weeks,2.5 mg/kg
